Where two headings read alike, the source gives them in different places.
System: TNFα
Assay: IRAK4 Monocyte TNFα Cell Based Assay
Design: species or system human
Conditions: read-out: EC50 MONO TNF HTRF
Outline: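 TNFα release quantified by HTRF (cryptate/XL665 antibody pair, overnight at RT) after 1 h compound pre-incubation (0.1% DMSO) and 4 h LPS challenge at 50 pg/ml, 37 °C, 5,000 monocytes per well. Signal ratio normalised between unstimulated (0%) and stimulated (100%) controls.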

[1] = human monocytes, second part of Table 2, compounds 33-343, unit inferred

Row | Compound | EC50 [1] | EC50 (Homo sapiens, Monocyte)
1 | CC(C)Nc1cc(-c2ccc3cc(C#N)cnn23)ncc1-c1nnc(N2C[C@H]3CC[C@@H](C2)[C@@]3(C)O)s1 [Example 153, 7-(5-(5-((1R,55,8r)-8-hydroxy-8-methyl-3-azabicyclo[3.2.1]octan-3-yl)-1,3,4-thiadiazol-2-yl)-4-(isopropylamino)pyridin-2-yl)pyrrolo[1,2-b]pyridazine-3-carbonitrile] | 7.2 nM | –
2 | CC(C)Nc1cc(-c2ccc3cc(C#N)cnn23)ncc1-c1nnc(N2C[C@H]3CC[C@@H](C2)[C@@H]3NC(=O)C2CCN(C)CC2)s1 [Example 100, N-((1R,5S,8s)-3-(5-(6-(3-cyanopyrrolo[1,2-b]pyridazin-7-yl)-4-(isopropylamino)pyridin-3-yl)-1,3,4-thiadiazol-2-yl)-3-azabicyclo[3.2.1]octan-8-yl)-1-methylpiperidine-4-carboxamide] | 2.1 nM | –
3 | CC(C)Nc1cc(-c2ccc3cc(C#N)cnn23)ncc1-c1nnc(N2C[C@H]3CC[C@@H](C2)[C@@H]3NS(C)(=O)=O)s1 [Example 58, N-((1R,5S,8s)-3-(5-(6-(3-cyanopyrrolo[1,2-b]pyridazin-7-yl)-4-(isopropylamino)pyridin-3-yl)-1,3,4-thiadiazol-2-yl)-3-azabicyclo[3.2.1]octan-8-yl)methanesulfonamide] | 9.3 nM | –
4 | CC(C)(O)C(=O)NC12CCC(c3nnc(-c4cnc(-c5ccc6cc(C#N)cnn56)cc4NC4COC4)s3)(C1)C2 [Compound 335] | 48.9 nM | –
5 | CC(C)Nc1cc(-c2ccc3cc(C#N)cnn23)ncc1-c1nnc(C(=O)N2CC[C@@H](NC(=O)C3CC3)C2)s1 [Example 47] | 5680 nM | –
6 | CC(=O)NC1CCC2(CC1)CN(c1nnc(-c3cnc(-c4ccc5cc(C#N)cnn45)cc3N[C@H](C)C#N)s1)C2 [Example 77] | 3.9 nM | –
7 | CC(C)(O)C(=O)N[C@@H]1[C@@H]2CC[C@H]1CN(c1nnc(-c3cnc(-c4ccc5cc(C#N)cnn45)cc3NC3CCOCC3)s1)C2 [Example 101, N-((1R,5S,8s)-3-(5-(6-(3-cyanopyrrolo[1,2-b]pyridazin-7-yl)-4-((tetrahydro-2H-pyran-4-yl)amino)pyridin-3-yl)-1,3,4-thiadiazol-2-yl)-3-azabicyclo[3.2.1]octan-8-yl)-2-hydroxy-2-methylpropanamide] | 1.2 nM | –
8 | CC(C)Nc1cc(-c2ccc3cc(C#N)cnn23)ncc1-c1nnc(-n2cccn2)s1 [Compound 325] | 1000 nM | –
9 | CC(C)Nc1cc(-c2ccc3cc(C#N)cnn23)ncc1-c1nnc(N2CC3CC(C2)N3C(=O)CN=S(C)(C)=O)s1 [Example 107, 7-(5-(5-(6-(2-((dimethyl(oxo)-16-sulfanylidene)amino)acetyl)-3,6-diazabicyclo[3.1.1]heptan-3-yl)-1,3,4-thiadiazol-2-yl)-4-(isopropylamino)pyridin-2-yl)pyrrolo[1,2-b]pyridazine-3-carbonitrile] | – | 18.4 nM
10 | CC(=O)N[C@@H]1[C@@H]2CC[C@H]1CN(c1nnc(-c3cnc(-c4ccc5cc(C#N)cnn45)cc3N[C@H](C)C#N)s1)C2 [Example 53, N-((1R,5S,8S)-3-(5-(4-(((R)-1-cyanoethyl)amino)-6-(3-cyanopyrrolo[1,2-b]pyridazin-7-yl)pyridin-3-yl)-1,3,4-thiadiazol-2-yl)-3-azabicyclo[3.2.1]octan-8-yl)acetamide] | 0.6 nM | –
11 | CC(=O)NC[C@H]1CCCN1C(=O)c1nnc(-c2cnc(-c3ccc4cc(C#N)cnn34)cc2NC(C)C)s1 [Example 42] | 35.7 nM | –
12 | CC(C)Nc1cc(-c2ccc3cc(C#N)cnn23)ncc1-c1nnc(N2C[C@H]3CC[C@@H](C2)[C@@H]3NC(=O)C2(C)COC2)s1 [Example 94] | 4 nM | –
13 | CC(C)Nc1cc(-c2ccc3cc(C#N)cnn23)ncc1-c1nnc(N2CC3CC(C2)N3C(=O)N2CCN(C)CC2)s1 [Example 108, 7-(4-(isopropylamino)-5-(5-(6-(4-methylpiperazine-1-carbonyl)-3,6-diazabicyclo[3.1.1]heptan-3-yl)-1,3,4-thiadiazol-2-yl)pyridin-2-yl)pyrrolo[1,2-b]pyridazine-3-carbonitrile] | – | 20.6 nM
14 | C[C@H](C#N)Nc1cc(-c2ccc3cc(C#N)cnn23)ncc1-c1nnc(N2C[C@H]3CC[C@@H](C2)[C@@H]3NC(=O)C(C)(C)O)s1 [Example 86] | 0.6 nM | –
15 | COC(=O)N[C@H]1CCN(C(=O)c2nnc(-c3cnc(-c4ccc5cc(C#N)cnn45)cc3NC(C)C)s2)C1 [Example 43, methyl (S)-(1-(5-(6-(3-cyanopyrrolo[1,2-b]pyridazin-7-yl)-4-(isopropylamino)pyridin-3-yl)-1,3,4-thiadiazole-2-carbonyl)pyrrolidin-3-yl)carbarnate] | 21.9 nM | –
16 | CC(C)Nc1cc(-c2ccc3cc(C#N)cnn23)ncc1-c1nnc(N2CCS(=N)(=O)CC2)s1 [Compound 262, 7-(5-(5-(1-imino-1-oxido-116-thiomorpholino)-1,3,4-thiadiazo1-2-yl)-4-(isopropylamino)pyridin-2-yl)pyrrolo[1,2-b]pyridazine-3-carbonitrile] | 69.9 nM | –

Further lines, with some results ahead:

Row | EC50 [1] | Compound | EC50 (Homo sapiens, Monocyte)
17 | 11.1 nM | CC(C)Nc1cc(-c2ccc3cc(C#N)cnn23)ncc1-c1nnc(C(=O)N2CCC[C@H]2CO)s1 [Example 217] | –
18 | 17.5 nM | CC(C)Nc1cc(-c2ccc3cc(C#N)cnn23)ncc1-c1nnc(N2CC3(CCNC3=O)C2)s1 [Example 164] | –
19 | 18.4 nM | CC1(O)CCN(c2nnc(-c3cnc(-c4ccc5cc(C#N)cnn45)cc3NC3(C)COC3)s2)CC1 [Example 181, 7-(5-(5-(4-hydroxy-4-methylpiperidin-l-yl)-1,3,4-thiadiazol-2-yl)-4-((3-methyloxetan-3-yl)amino)pyridin-2-yl)pyrrolo[1,2-b]pyridazine-3-carbonitrile] | –
20 | 9.6 nM | CC(=O)N[C@@H]1C[C@H]2COC[C@@H](C1)N2c1nnc(-c2cnc(-c3ccc4cc(C#N)cnn34)cc2NC(C)C)s1 [Example 209, N-((1R,5S,7r)-9-(5-(6-(3-cyanopyrrolo[1,2-b]pyridazin-7-yl)-4-(isopropylamino)pyridin-3-yl)-1,3,4-thiadiazol-2-yl)-3-oxa-9-azabicyclo[3.3.1]nonan-7-yl)acetamide] | –
21 | 5.3 nM | CC(=O)N1C[C@@H]2C[C@H]1CN2c1nnc(-c2cnc(-c3ccc4cc(C#N)cnn34)cc2NC(C)C)s1 [Example 302, 7-(5-(5-((1S,4S)-5-acety1-2,5-diazabicyclo[2.2.1]heptan-2-yl)-1,3,4-thiadiazol-2-yl)-4-(isopropylamino)pyridin-2-yl)pyrrolo[1,2-b]pyridazine-3-carbonitrile] | –
22 | 23.5 nM | CNc1cc(-c2ccc3cc(C#N)cnn23)ncc1-c1nnc(N2C[C@H]3C[C@@H](C2)[C@@H]3NC(C)=O)s1 [Example 176, N-((1R,5S,6s)-3-(5-(6-(3-cyanopyrrolo[1,2-b]pyridazin-7-yl)-4-(methylamino)pyridin-3-yl)-1,3,4-thiadiazol-2-yl)-3-azabicyclo[3.1.1]heptan-6-yl)acetamide] | –
23 | 858 nM | CC(C)Nc1cc(-c2ccc3cc(C#N)cnn23)ncc1-c1nnc(C(=O)N[C@H]2C[C@@](C)(O)C2)s1 [Example 218, 5-(6-(3-cyanopyrrolo[1,2-b]pyridazin-7-yl)-4-(isopropylamino)pyridin-3-yl)-N-((1s,3s)-3-hydroxy-3-methylcyclobutyl)-1,3,4-thiadiazole-2-carboxamide] | –

From patent US11046686B2, “Thiadiazole IRAK4 compounds” (Gilead Sciences, Inc., priority 2018, dated 2021)
